Experiments:
Format in all cases: functional
[1] = tested on: SUD4; experiment: Growth inhibition of human SU-DHL-4 cells at 1.7 uM incubated for 3 days in presence of 0.017 uM acalabrutinib relative to control; settings: SU-DHL-4, 72 h, time 3 day, read-out: GI
[2] = tested on: SUD4; experiment: Growth inhibition of human SU-DHL-4 cells at 0.33 uM incubated for 3 days in presence of 0.33 uM acalabrutinib relative to control; settings: SU-DHL-4, 72 h, time 3 day, read-out: GI
[3] = tested on: SUD4; experiment: Growth inhibition of human SU-DHL-4 cells at 0.33 uM incubated for 3 days in presence of 0.17 uM acalabrutinib relative to control; settings: SU-DHL-4, 72 h, time 3 day, read-out: GI
[4] = tested on: SUD4; experiment: Growth inhibition of human SU-DHL-4 cells at 0.33 uM incubated for 3 days in presence of 0.017 uM acalabrutinib relative to control; settings: SU-DHL-4, 72 h, time 3 day, read-out: GI
[5] = tested on: SUD4; experiment: Growth inhibition of human SU-DHL-4 cells at 0.17 uM incubated for 3 days in presence of 0.33 uM acalabrutinib relative to control; settings: SU-DHL-4, 72 h, time 3 day, read-out: GI
[6] = tested on: SUD4; experiment: Growth inhibition of human SU-DHL-4 cells at 0.33 uM incubated for 3 days in presence of 0.003 uM acalabrutinib relative to control; settings: SU-DHL-4, 72 h, time 3 day, read-out: GI
[7] = tested on: SUD4; experiment: Growth inhibition of human SU-DHL-4 cells at 0.17 uM incubated for 3 days in presence of 0.17 uM acalabrutinib relative to control; settings: SU-DHL-4, 72 h, time 3 day, read-out: GI
[8] = tested on: SUD4; experiment: Growth inhibition of human SU-DHL-4 cells at 0.17 uM incubated for 3 days in presence of 0.033 uM acalabrutinib relative to control; settings: SU-DHL-4, 72 h, time 3 day, read-out: GI
[9] = tested on: SUD4; experiment: Growth inhibition of human SU-DHL-4 cells at 0.17 uM incubated for 3 days in presence of 0.017 uM acalabrutinib relative to control; settings: SU-DHL-4, 72 h, time 3 day, read-out: GI
[10] = tested on: SUD4; experiment: Growth inhibition of human SU-DHL-4 cells at 0.17 uM incubated for 3 days in presence of 0.003 uM acalabrutinib relative to control; settings: SU-DHL-4, 72 h, time 3 day, read-out: GI
[11] = tested on: OCI-Ly10; experiment: Growth inhibition of human OCILY10 cells at 0.17 uM incubated for 3 days in presence of 0.003 uM acalabrutinib relative to control; settings: OCI-Ly10, 72 h, time 3 day, read-out: GI
[12] = tested on: OCI-Ly10; experiment: Growth inhibition of human OCILY10 cells at 0.17 uM incubated for 3 days in presence of 0.017 uM acalabrutinib relative to control; settings: OCI-Ly10, 72 h, time 3 day, read-out: GI
[13] = tested on: OCI-Ly10; experiment: Growth inhibition of human OCILY10 cells at 0.17 uM incubated for 3 days in presence of 0.033 uM acalabrutinib relative to control; settings: OCI-Ly10, 72 h, time 3 day, read-out: GI
[14] = tested on: OCI-Ly10; experiment: Growth inhibition of human OCILY10 cells at 0.17 uM incubated for 3 days in presence of 0.17 uM acalabrutinib relative to control; settings: OCI-Ly10, 72 h, time 3 day, read-out: GI
[15] = tested on: OCI-Ly10; experiment: Growth inhibition of human OCILY10 cells at 0.17 uM incubated for 3 days in presence of 0.33 uM acalabrutinib relative to control; settings: OCI-Ly10, 72 h, time 3 day, read-out: GI
[16] = tested on: OCI-Ly10; experiment: Growth inhibition of human OCILY10 cells at 0.33 uM incubated for 3 days in presence of 0.003 uM acalabrutinib relative to control; settings: OCI-Ly10, 72 h, time 3 day, read-out: GI
[17] = tested on: OCI-Ly10; experiment: Growth inhibition of human OCILY10 cells at 0.33 uM incubated for 3 days in presence of 0.017 uM acalabrutinib relative to control; settings: OCI-Ly10, 72 h, time 3 day, read-out: GI
[18] = tested on: OCI-Ly10; experiment: Growth inhibition of human OCILY10 cells at 0.33 uM incubated for 3 days in presence of 0.033 uM acalabrutinib relative to control; settings: OCI-Ly10, 72 h, time 3 day, read-out: GI
[19] = tested on: OCI-Ly10; experiment: Growth inhibition of human OCILY10 cells at 0.33 uM incubated for 3 days in presence of 0.17 uM acalabrutinib relative to control; settings: OCI-Ly10, 72 h, time 3 day, read-out: GI
[20] = tested on: OCI-Ly10; experiment: Growth inhibition of human OCILY10 cells at 0.33 uM incubated for 3 days in presence of 0.33 uM acalabrutinib relative to control; settings: OCI-Ly10, 72 h, time 3 day, read-out: GI
[21] = tested on: OCI-Ly10; experiment: Growth inhibition of human OCILY10 cells at 1.7 uM incubated for 3 days in presence of 0.003 uM acalabrutinib relative to control; settings: OCI-Ly10, 72 h, time 3 day, read-out: GI
[22] = tested on: OCI-Ly10; experiment: Growth inhibition of human OCILY10 cells at 1.7 uM incubated for 3 days in presence of 0.017 uM acalabrutinib relative to control; settings: OCI-Ly10, 72 h, time 3 day, read-out: GI
[23] = tested on: OCI-Ly10; experiment: Growth inhibition of human OCILY10 cells at 1.7 uM incubated for 3 days in presence of 0.033 uM acalabrutinib relative to control; settings: OCI-Ly10, 72 h, time 3 day, read-out: GI
[24] = tested on: OCI-Ly10; experiment: Growth inhibition of human OCILY10 cells at 1.7 uM incubated for 3 days in presence of 0.17 uM acalabrutinib relative to control; settings: OCI-Ly10, 72 h, time 3 day, read-out: GI
[25] = tested on: OCI-Ly10; experiment: Growth inhibition of human OCILY10 cells at 1.7 uM incubated for 3 days in presence of 0.33 uM acalabrutinib relative to control; settings: OCI-Ly10, 72 h, time 3 day, read-out: GI
[26] = tested on: OCI-Ly10; experiment: Growth inhibition of human OCILY10 cells at 3.3 uM incubated for 3 days in presence of 0.003 uM acalabrutinib relative to control; settings: OCI-Ly10, 72 h, time 3 day, read-out: GI
[27] = tested on: OCI-Ly10; experiment: Growth inhibition of human OCILY10 cells at 3.3 uM incubated for 3 days in presence of 0.17 uM acalabrutinib relative to control; settings: OCI-Ly10, 72 h, time 3 day, read-out: GI
[28] = tested on: OCI-Ly10; experiment: Growth inhibition of human OCILY10 cells at 3.3 uM incubated for 3 days in presence of 0.33 uM acalabrutinib relative to control; settings: OCI-Ly10, 72 h, time 3 day, read-out: GI
[29] = tested on: OCI-Ly10; experiment: Growth inhibition of human OCILY10 cells at 10 uM incubated for 3 days in presence of 0.003 uM acalabrutinib relative to control; settings: OCI-Ly10, 72 h, time 3 day, read-out: GI
[30] = tested on: OCI-Ly10; experiment: Growth inhibition of human OCILY10 cells at 10 uM incubated for 3 days in presence of 0.017 uM acalabrutinib relative to control; settings: OCI-Ly10, 72 h, time 3 day, read-out: GI
[31] = tested on: OCI-Ly10; experiment: Growth inhibition of human OCILY10 cells at 10 uM incubated for 3 days in presence of 0.033 uM acalabrutinib relative to control; settings: OCI-Ly10, 72 h, time 3 day, read-out: GI
[32] = tested on: OCI-Ly10; experiment: Growth inhibition of human OCILY10 cells at 10 uM incubated for 3 days in presence of 0.17 uM acalabrutinib relative to control; settings: OCI-Ly10, 72 h, time 3 day, read-out: GI
[33] = tested on: SUD4; experiment: Growth inhibition of human SU-DHL-4 cells at 1.7 uM incubated for 3 days in presence of 0.17 uM acalabrutinib relative to control; settings: SU-DHL-4, 72 h, time 3 day, read-out: GI
[34] = tested on: SUD4; experiment: Growth inhibition of human SU-DHL-4 cells at 1.7 uM incubated for 3 days in presence of 0.33 uM acalabrutinib relative to control; settings: SU-DHL-4, 72 h, time 3 day, read-out: GI
[35] = tested on: SUD4; experiment: Growth inhibition of human SU-DHL-4 cells at 3.3 uM incubated for 3 days in presence of 0.003 uM acalabrutinib relative to control; settings: SU-DHL-4, 72 h, time 3 day, read-out: GI
[36] = tested on: SUD4; experiment: Growth inhibition of human SU-DHL-4 cells at 3.3 uM incubated for 3 days in presence of 0.017 uM acalabrutinib relative to control; settings: SU-DHL-4, 72 h, time 3 day, read-out: GI
[37] = tested on: SUD4; experiment: Growth inhibition of human SU-DHL-4 cells at 3.3 uM incubated for 3 days in presence of 0.17 uM acalabrutinib relative to control; settings: SU-DHL-4, 72 h, time 3 day, read-out: GI
[38] = tested on: SUD4; experiment: Growth inhibition of human SU-DHL-4 cells at 3.3 uM incubated for 3 days in presence of 0.33 uM acalabrutinib relative to control; settings: SU-DHL-4, 72 h, time 3 day, read-out: GI
[39] = tested on: SUD4; experiment: Growth inhibition of human SU-DHL-4 cells at 10 uM incubated for 3 days in presence of 0.017 uM acalabrutinib relative to control; settings: SU-DHL-4, 72 h, time 3 day, read-out: GI
[40] = tested on: SUD4; experiment: Growth inhibition of human SU-DHL-4 cells at 10 uM incubated for 3 days in presence of 0.033 uM acalabrutinib relative to control; settings: SU-DHL-4, 72 h, time 3 day, read-out: GI
[41] = tested on: SUD4; experiment: Growth inhibition of human SU-DHL-4 cells at 10 uM incubated for 3 days in presence of 0.33 uM acalabrutinib relative to control; settings: SU-DHL-4, 72 h, time 3 day, read-out: GI

Work on `CC[C@@H]1[C@H](F)C(=O)N[C@@H]1COc1nccc2cc(C(N)=O)c(OC)cc12` [ZIMLOVISERTIB] yielded an inhibition of growth at 1.7 µM [1] of 2%, an inhibition of growth at 0.33 µM [2] of 6% and an inhibition of growth at 0.33 µM [3] of 2%. It also gave an inhibition of growth at 0.33 µM [4] of 1%, an inhibition of growth at 0.17 µM [5] of 6% and an inhibition of growth at 0.33 µM [6] of 1%. It also gave an inhibition of growth at 0.17 µM [7] of 2%, an inhibition of growth at 0.17 µM [8] of 1% and an inhibition of growth at 0.17 µM [9] of 1%. The inhibition of growth at 0.17 µM [10] was 1%, the inhibition of growth at 0.17 µM [11] was 22% and the inhibition of growth at 0.17 µM [12] was 93%. For the same compound, the inhibition of growth at 0.17 µM [13] was 142%, the inhibition of growth at 0.17 µM [14] was 171% and the inhibition of growth at 0.17 µM [15] was 171%. It also gave an inhibition of growth at 0.33 µM [16] of 21%, an inhibition of growth at 0.33 µM [17] of 92% and an inhibition of growth at 0.33 µM [18] of 142%. The inhibition of growth at 0.33 µM [19] was 171%, the inhibition of growth at 0.33 µM [20] was 172% and the inhibition of growth at 1.7 µM [21] was 26%. It also gave an inhibition of growth at 1.7 µM [22] of 89%, an inhibition of growth at 1.7 µM [23] of 139% and an inhibition of growth at 1.7 µM [24] of 170%. For the same compound, the inhibition of growth at 1.7 µM [25] was 170%, the inhibition of growth at 3.3 µM [26] was 36% and the inhibition of growth at 3.3 µM [27] was 170%. For the same compound, the inhibition of growth at 3.3 µM [28] was 170%, the inhibition of growth at 10 µM [29] was 80% and the inhibition of growth at 10 µM [30] was 140%. For the same compound, the inhibition of growth at 10 µM [31] was 155%, the inhibition of growth at 10 µM [32] was 178% and the inhibition of growth at 1.7 µM [33] was 3%. It also gave an inhibition of growth at 1.7 µM [34] of 6%, an inhibition of growth at 3.3 µM [35] of 2% and an inhibition of growth at 3.3 µM [36] of 2%. It also gave an inhibition of growth at 3.3 µM [37] of 3%, an inhibition of growth at 3.3 µM [38] of 6% and an inhibition of growth at 10 µM [39] of 3%. It also gave an inhibition of growth at 10 µM [40] of 2% and an inhibition of growth at 10 µM [41] of 7%.

Source: ChEMBL document CHEMBL5244269, “Improving metabolic stability and removing aldehyde oxidase liability in a 5-azaquinazoline series of IRAK4 inhibitors” (Bioorg Med Chem, 2020)
